The text below walks through data of patent EP4431111A1, “PROBIOTIC AS VACCINE IMMUNOADJUVANT” (COREE S.r.l., priority 2023, dated 2024).

The data set deals with A549 cells. Kind of data set: Cytotoxicity, LDH-release assay on A549 cells. Type of data set: cell-based, human. Conditions: 1% Triton X-100, 10 minutes at room temperature, positive control C+ set at 100%. The method, then: The cytotoxicity of all the conditions tested was evaluated on A549 cells by the LDH activity assay. Cells were seeded in 96 well plate at a density of 3×10^4cells/well: they were leaved at 37°C for 24h and then they were co-cultured with S-protein alone or in the presence of aluminium-based adjuvant or heat-inactivated probiotic strains for 24h. At the end of this incubation period, the release of LDH in the supernatants was evaluated by commercial colorimetric kit following manufacturer's instruction. The control included medium alone used as blank. The spectrophotometric absorbance was measured at 450nm wavelength using a microplate reader.

For the substance Triton X-100, the “release of LDH” value is given as “maximal release of LDH”.
